# Results: patent publication US20070049535A1, “PREVENTIVE/REMEDY FOR DIABETIC COMPLICATIONS USING OLIGOPEPTIDE” (priority 2004, published 2007)
# Like-named read-outs stand apart in the source and are kept apart here. Peptide text beside a SMILES is read from it.
# What was measured:
# [1] = test system: AGE2 production by glyceraldehyde and bovine serum albumin; assay: Inhibition of AGE2 production by glyceraldehyde and serum albumin (ELISA with anti-AGE2 polyclonal antibody); conditions: read-out: IC50 of inhibition of AGE2 production; 10 mM glyceraldehyde, 10 mg/ml bovine serum albumin, phosphate buffer pH 7.4, 37° C., 3 days
# Experimental: (§1) Three days later, AGE2 concentration of the reaction mixture was measured, and IC50 value of inhibition of AGE2 production by each peptide or amino acid was calculated. The AGE2 measurement was performed by the ELISA method using an anti-AGE2 polyclonal antibody prepared from rabbit, according to a conventional method.
# [2] = test system: AGE2 production by glyceraldehyde and bovine serum albumin; conditions: pH 7.4
# Experimental: as §1
# [3] = AGE2-producing capability by reaction of oligopeptide with glyceraldehyde (ELISA with anti-AGE2 polyclonal antibody); format: biochemical; conditions: for AGE2 concentration: 10 mM amino acid or peptide + 100 mM glyceraldehyde, 0.1M phosphate buffer pH 7.4, 37° C., 1 week
# Experimental: To 0.1M phosphate buffer (pH 7.4) containing 10 mM of any of Lys, Lys-Lys, Lys-Lys-Lys, and Lys-Lys-Lys-Lys (SEQ ID NO: 1) was added 100 mM glyceraldehyde and the mixture was reacted at 37° C. for 1 week. One week later, the AGE2 concentration of the reaction mixture was measured.
# serum AGE2 = assay: Serum AGE2 concentration reduction in diabetic mouse model (db/db mouse); format: in vivo; conditions: db/db mice
# Experimental: 7-Week-old male db/db mice were randomly divided into 4 groups (3 per group), distilled water, 10 mM Lys-Lys solution, 30 mM Lys-Lys solution, or 100 mM Lys-Lys solution was freely given for 10 days as drinking water, blood samples were collected from the heart, and the serum AGE2 concentration was measured.
Structure (SMILES),IC50 [1] [µM],"IC50 ([2]; bovine, 3 days) [µM]",AGE2 concentration [3] [U/ml],further results
"N=C(N)NCCC[C@H](N)C(=O)O [Arg, reference compound]",1900,,,
NCCCC[C@H](NC(=O)[C@@H](N)CCCN=C(N)N)C(=O)O [Arg-Lys] (H-Arg-Lys-OH),,780,,
"NCCCC[C@H](N)C(=O)O [Lys, reference compound]",,,0.47,IC50 [2]: 2200 µM
NCCCC[C@H](NC(=O)[C@H](CCCCN)NC(=O)[C@H](CCCCN)NC(=O)[C@@H](N)CCCCN)C(=O)O [Lys-Lys-Lys-Lys] (H-KKKK-OH),620,,14.2,
NCCCC[C@H](NC(=O)[C@@H](N)CCCCN)C(=O)O [Lys-Lys],,560,4.7,"AGE2 production capacity relative to Lys alone ([3]; reaction with glyceraldehyde, versus Lys alone): about 10 times; serum AGE2 concentration (serum AGE2; 10 mM solution as drinking water for 10 days): 3.5 ± 0.6 U/ml; serum AGE2 concentration (serum AGE2; 30 mM solution as drinking water for 10 days): 2.3 ± 0.4 U/ml; serum AGE2 concentration (serum AGE2; 100 mM solution as drinking water for 10 days): 1.7 ± 0.2 U/ml; serum AGE2 concentration, dose dependence (serum AGE2; 10-100 mM solution as drinking water for 10 days): decreased in a manner dependent on the Lys-Lys concentration"
